Each structure is given as a SMILES string. Residues, ends and D or L forms follow the SMILES beside them. *: point of attachment. Oleoyl = CCCCCCCC/C=C\CCCCCCCC(=O)*

One assay concerns collagène de type I. Nature of the assay: in vitro acellular glycation of type I collagen, thiobarbituric acid assay. The note with it: glucose 250 mM, 37°C, 8 days, figure 1. It is filed as biochemical. The method, then:
L'activité inhibitrice de la glycylglycine est évaluée et comparée à celle de l'aminoguanidine en utilisant un modèle in vitro, acellulaire, de glycation du collagène de type I, selon le protocole suivant.
L'actif anti-glyquant est introduit dans une solution contenant du glucose 250 mM et du collagène de type I. L'aminoguanidine agit notamment en bloquant le groupement carbonyle du produit d'Amadori, stoppant ainsi la glycation à son stade précoce (M. Brownlee et coll., Science, 1986 (6), 232, 1629-1632).
Le mélange est incubé à 37°C pendant 8 jours puis le glucose non fixé est éliminé par dialyse. Après lyophilisation du collagène, on procède à un dosage à l'acide thiobarbiturique pour déterminer le taux de glycation.
Cette méthode permet le dosage de sucres liés aux cétoamines.
Le lyophilisat, après être pesé, est dissous dans l'acide oxalique 0,5 M. On laisse incuber à 120°C pendant 1 heure, puis à 40°C pendant 45 min après avoir ajouté de l'acide thiobarbiturique à 50 mM.
La densité optique du mélange, lue à 443 nm, est proportionnelle au taux de glycation exprimé en nmoles HMF formé par mg de lyophilisat.

The subject of another assay is élastase. In words: in vitro acellular anti-elastase test, elastase diffusion in agarose gel containing orcein-stained insoluble elastin. It is filed as biochemical. The note with it: figure 2. The text has this: La méthode utilisée est une technique in vitro acellulaire, basée sur la diffusion d'élastase dans un gel d'agarose contenant de l'élastine insoluble colorée par l'orcéïne et dispersée dans le gel avec ou sans principe actif. La lecture du diamètre de lyse permet de calculer le pourcentage d'inhibition de l'enzyme par le principe actif.

The subject of the next assay is fibroblastes. In words: Bell-type dermal equivalent, contraction kinetics of fibroblast-seeded collagen lattice. The format is cell-based. As to conditions: followed over 7 days; 0,005 % oléamide de glycylglycine, 0,003 % acide oléique, 0,002 % gly-gly; figure 3. The text has this: Pour objectiver cette activité, on utilise le modèle cellulaire de derme équivalent de type Bell. Il permet, grâce à une mise en culture de fibroblastes sur un support de collagène, de reproduire in vitro une structure tissulaire tridimensionnelle et de rendre compte des interactions fibroblaste-matrice, le fibroblaste étant impliqué dans le maintien de la structure dermique.
La capacité des fibroblastes, ensemencés dans un milieu défini avec ou sans actif, à organiser les fibres de collagène les unes par rapport aux autres et de les faire se rétracter, se concrétise par une diminution de surface de ce derme. Ce test traduit la capacité du fibroblaste à modeler, par ce biais, un véritable tissu. On suit donc la cinétique de contraction de ce derme sur 7 jours, cette cinétique étant liée au métabolisme de la cellule.
Les concentrations en actifs employées correspondent à des doses auxquelles ces actifs se sont avérés non cytotoxiques et non prolifératifs.

`NCC(=O)NCC(=O)O` [glycylglycine] (H-Gly-Gly-OH): the “activité anti-glyquante (taux de glycation, nmoles HMF/mg)” value with collagène de type I (at 100 mM, compared with aminoguanidine) is on record as “activité équivalent à celle de l'aminoguanidine”; in the assay with collagène de type I (1 mM, 10 mM and 100 mM) it was “avec un effet-dose”.
For `CCCCCCCC/C=C\CCCCCCCC(=O)NCC(=O)NCC(=O)O` [oléamide de glycylglycine] (Oleoyl-Gly-Gly-OH), the “activité anti-élastase (aire de lyse)” value in the assay with élastase was “activité anti-élastase importante”. For the same compound, the “cinétique de rétraction (pourcentage de rétraction)” value in the assay on fibroblastes was “plus efficace que l'acide oléique, l'association acide oléique/glycylglycine, la glycylglycine”.

Values taken from patent EP1061897B1, “GLYCYLGLYCINE OLEAMIDE IN DERMO-COSMETOLOGY” (Pierre Fabre Dermo-Cosmetique, priority 1998, dated 1999).
